In ChEMBL document CHEMBL1145064, “Fluorine substitution can block CYP3A4 metabolism-dependent inhibition: identification of (S)-N-[1-(4-fluoro-3- morpholin-4-ylphenyl)ethyl]-3- (4-fluorophenyl)acrylamide as an orally bioavailable KCNQ2 opener devoid of CYP3A4 metabolism-dependent inhibition” (J Med Chem, 2003):
pEC50, pIC50: −log10 of the molar value.

Columns and labels:
[1] = Elimination half life in rat after i.v. dose of 1 mg/kg; format: ADME, organism-based; set-up: dose 1 mg/kg, route intravenous; settings: in vivo, iv
[2] = molecular target: Potassium voltage-gated channel subfamily KQT member 2 (Homo sapiens, UniProt O43526); assay: Effective concentration against Potassium voltage gated channel, KQT-like subfamily, member 2 expressed in SH-SY5Y human neuroblastoma cells; format: cell-based
Potassium voltage-gated channel subfamily KQT member 2, sequence (O43526 whole entry): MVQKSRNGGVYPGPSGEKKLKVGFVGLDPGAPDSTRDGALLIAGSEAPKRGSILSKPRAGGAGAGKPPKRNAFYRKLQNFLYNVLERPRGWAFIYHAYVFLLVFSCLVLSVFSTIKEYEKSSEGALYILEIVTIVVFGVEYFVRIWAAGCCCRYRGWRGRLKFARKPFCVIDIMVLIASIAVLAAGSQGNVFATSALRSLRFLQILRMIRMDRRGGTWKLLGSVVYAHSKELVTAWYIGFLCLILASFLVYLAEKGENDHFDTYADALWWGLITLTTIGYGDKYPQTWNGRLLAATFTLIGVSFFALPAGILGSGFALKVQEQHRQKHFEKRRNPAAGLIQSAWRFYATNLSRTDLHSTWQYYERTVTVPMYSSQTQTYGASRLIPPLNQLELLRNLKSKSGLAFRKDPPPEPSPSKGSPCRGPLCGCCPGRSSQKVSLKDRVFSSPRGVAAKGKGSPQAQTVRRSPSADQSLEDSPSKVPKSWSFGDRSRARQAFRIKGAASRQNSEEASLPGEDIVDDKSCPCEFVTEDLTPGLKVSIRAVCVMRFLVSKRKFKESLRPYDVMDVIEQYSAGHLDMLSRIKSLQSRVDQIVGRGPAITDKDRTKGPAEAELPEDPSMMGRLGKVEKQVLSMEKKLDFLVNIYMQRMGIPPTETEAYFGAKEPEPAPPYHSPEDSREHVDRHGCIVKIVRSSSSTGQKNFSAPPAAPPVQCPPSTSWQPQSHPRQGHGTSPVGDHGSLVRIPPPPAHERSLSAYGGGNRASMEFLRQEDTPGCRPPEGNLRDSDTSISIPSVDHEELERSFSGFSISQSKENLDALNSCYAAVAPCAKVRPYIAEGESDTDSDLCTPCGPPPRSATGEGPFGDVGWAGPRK

[3] = Vd compound was determined in rat after i.v. dose of 1 mg/kg; format: ADME, organism-based; set-up: dose 1 mg/kg, route intravenous; settings: in vivo, iv
[4] = molecular target: T1, Cytochrome P450 3A4 (Homo sapiens, UniProt P08684)
T1 sequence (P08684 whole entry): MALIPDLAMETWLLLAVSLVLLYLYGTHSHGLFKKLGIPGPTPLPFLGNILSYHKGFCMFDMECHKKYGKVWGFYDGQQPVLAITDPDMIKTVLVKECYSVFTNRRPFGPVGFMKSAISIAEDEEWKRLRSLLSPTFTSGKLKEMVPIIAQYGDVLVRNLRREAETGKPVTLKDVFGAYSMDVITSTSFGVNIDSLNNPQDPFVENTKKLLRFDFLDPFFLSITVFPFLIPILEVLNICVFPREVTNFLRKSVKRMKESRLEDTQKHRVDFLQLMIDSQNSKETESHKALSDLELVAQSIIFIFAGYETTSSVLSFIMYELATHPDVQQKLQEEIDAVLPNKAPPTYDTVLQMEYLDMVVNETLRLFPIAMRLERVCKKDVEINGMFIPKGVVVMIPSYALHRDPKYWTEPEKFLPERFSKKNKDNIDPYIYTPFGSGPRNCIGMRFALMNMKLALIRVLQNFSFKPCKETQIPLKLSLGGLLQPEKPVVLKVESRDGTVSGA
Description: Inhibition of recombinant human Cytochrome P450 3A4 with BFC [7-benzyloxy-4-trifluoromethylcoumarin] after 15 minutes

[5] = Plasma clearance in rat after i.v. dose of 1 mg/kg; format: ADME, organism-based; set-up: dose 1 mg/kg, route intravenous; settings: iv
[6] = molecular target: T1, Cytochrome P450 3A4; remark: listed apart in the source
Description: Inhibition of recombinant human Cytochrome P450 3A4 using BFC [7-benzyloxy-4-trifluoromethylcoumarin] after 30 minutes

[7] = molecular target: T1, Cytochrome P450 3A4; remark: listed apart in the source
Description: Inhibition of recombinant human Cytochrome P450 3A4 with BFC [7-benzyloxy-4-trifluoromethylcoumarin] after 45 minutes

[8] = molecular target: Potassium voltage-gated channel subfamily KQT member 2 (Mus musculus) (UniProt Q9Z351); assay: Effective concentration against Potassium voltage gated channel KQT-like subfamily, member 2 (mouse) expressed in HEK 293 cells
Potassium voltage-gated channel subfamily KQT member 2 (Mus musculus), sequence (Q9Z351 whole entry, looked up): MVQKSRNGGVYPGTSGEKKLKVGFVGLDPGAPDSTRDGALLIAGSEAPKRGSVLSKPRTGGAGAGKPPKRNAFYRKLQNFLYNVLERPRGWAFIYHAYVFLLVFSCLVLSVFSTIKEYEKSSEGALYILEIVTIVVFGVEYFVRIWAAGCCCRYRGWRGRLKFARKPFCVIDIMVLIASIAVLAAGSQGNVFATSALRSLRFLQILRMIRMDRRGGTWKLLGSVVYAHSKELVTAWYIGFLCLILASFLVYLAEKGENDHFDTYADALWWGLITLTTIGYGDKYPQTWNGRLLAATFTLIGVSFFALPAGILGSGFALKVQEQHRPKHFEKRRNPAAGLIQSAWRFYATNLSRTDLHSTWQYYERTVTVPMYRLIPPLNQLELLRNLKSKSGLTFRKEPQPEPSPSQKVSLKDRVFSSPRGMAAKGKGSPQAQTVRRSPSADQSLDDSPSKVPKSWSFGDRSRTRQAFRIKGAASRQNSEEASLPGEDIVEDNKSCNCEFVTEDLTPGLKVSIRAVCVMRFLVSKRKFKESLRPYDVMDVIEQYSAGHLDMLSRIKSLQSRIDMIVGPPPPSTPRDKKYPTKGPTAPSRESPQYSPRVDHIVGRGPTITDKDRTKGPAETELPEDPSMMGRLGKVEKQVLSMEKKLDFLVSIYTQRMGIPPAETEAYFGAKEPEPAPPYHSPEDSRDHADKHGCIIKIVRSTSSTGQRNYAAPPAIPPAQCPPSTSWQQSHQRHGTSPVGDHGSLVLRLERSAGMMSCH

[9] = molecular target: T1, Cytochrome P450 3A4; remark: listed apart in the source
Description: Inhibition of recombinant human Cytochrome P450 3A4 with BFC [7-benzyloxy-4-trifluoromethylcoumarin] after 5 minutes

[10] = Oral bioavailability in rat after oral administration of 10 mg/kg dose; format: ADME, organism-based; settings: in vivo
[11] = molecular target: T1, Cytochrome P450 3A4; assay: Inhibition of recombinant human Cytochrome P450 3A4 with Benzoylresorufin; format: ADME
[12] = molecular target: T1, Cytochrome P450 3A4; format: ADME
[13] = molecular target: Cytochrome P450 2C9 (Homo sapiens, UniProt P11712); assay: Inhibition of recombinant human Cytochrome P450 2C9; format: ADME
Cytochrome P450 2C9, sequence (P11712 whole entry): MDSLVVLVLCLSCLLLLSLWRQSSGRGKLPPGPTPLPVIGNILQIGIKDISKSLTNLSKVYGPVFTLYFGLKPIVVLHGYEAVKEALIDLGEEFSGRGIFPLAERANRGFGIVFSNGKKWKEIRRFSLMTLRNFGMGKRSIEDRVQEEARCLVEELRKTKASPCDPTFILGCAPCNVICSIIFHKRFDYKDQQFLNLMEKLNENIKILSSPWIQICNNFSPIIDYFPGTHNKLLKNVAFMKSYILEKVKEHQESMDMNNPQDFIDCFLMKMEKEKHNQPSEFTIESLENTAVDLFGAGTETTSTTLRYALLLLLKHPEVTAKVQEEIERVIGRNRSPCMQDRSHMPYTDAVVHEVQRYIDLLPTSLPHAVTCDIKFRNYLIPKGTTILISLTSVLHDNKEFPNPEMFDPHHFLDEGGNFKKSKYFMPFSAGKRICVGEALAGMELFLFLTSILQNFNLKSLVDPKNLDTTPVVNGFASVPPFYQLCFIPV

[14] = molecular target: Cytochrome P450 2D6 (Homo sapiens, UniProt P10635); assay: Inhibition of recombinant human Cytochrome P450 2D6; format: ADME
Cytochrome P450 2D6, sequence (P10635 whole entry): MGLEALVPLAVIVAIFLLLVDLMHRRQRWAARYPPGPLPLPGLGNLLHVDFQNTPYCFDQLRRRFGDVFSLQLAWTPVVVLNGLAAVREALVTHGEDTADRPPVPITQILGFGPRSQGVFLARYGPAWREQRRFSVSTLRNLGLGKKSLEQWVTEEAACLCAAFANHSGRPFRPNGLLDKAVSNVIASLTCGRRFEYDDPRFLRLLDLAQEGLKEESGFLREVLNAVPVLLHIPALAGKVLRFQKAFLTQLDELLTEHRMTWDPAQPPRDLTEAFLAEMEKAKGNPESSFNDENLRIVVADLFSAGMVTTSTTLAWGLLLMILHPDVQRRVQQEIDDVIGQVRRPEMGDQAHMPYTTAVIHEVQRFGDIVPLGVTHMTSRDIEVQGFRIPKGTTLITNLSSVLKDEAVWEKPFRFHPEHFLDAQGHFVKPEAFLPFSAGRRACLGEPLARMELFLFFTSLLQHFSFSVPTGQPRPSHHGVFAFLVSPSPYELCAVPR

[15] = molecular target: Cytochrome P450 2C19 (Homo sapiens) (UniProt P33261); assay: Inhibition of recombinant human Cytochrome P450 2C19
Cytochrome P450 2C19 (Homo sapiens), sequence (P33261 whole entry, looked up): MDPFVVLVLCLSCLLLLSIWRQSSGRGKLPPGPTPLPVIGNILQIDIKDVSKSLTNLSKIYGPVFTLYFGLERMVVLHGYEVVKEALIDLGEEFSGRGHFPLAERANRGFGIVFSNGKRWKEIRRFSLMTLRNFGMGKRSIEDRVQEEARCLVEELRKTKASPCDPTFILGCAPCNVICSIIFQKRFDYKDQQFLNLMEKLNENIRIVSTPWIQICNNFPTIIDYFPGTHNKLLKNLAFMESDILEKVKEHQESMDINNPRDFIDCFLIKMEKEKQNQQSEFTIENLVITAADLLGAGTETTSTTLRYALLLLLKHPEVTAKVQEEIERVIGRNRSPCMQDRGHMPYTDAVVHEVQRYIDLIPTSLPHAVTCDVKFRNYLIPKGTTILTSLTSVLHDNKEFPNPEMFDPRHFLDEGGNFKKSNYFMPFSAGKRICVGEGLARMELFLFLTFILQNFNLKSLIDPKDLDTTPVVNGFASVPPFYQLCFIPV

[16] = molecular target: T2, Cytochrome P450 1A2 (Homo sapiens, UniProt P05177); assay: Inhibition of recombinant human Cytochrome P450 1A2; format: ADME
T2 sequence (P05177 whole entry): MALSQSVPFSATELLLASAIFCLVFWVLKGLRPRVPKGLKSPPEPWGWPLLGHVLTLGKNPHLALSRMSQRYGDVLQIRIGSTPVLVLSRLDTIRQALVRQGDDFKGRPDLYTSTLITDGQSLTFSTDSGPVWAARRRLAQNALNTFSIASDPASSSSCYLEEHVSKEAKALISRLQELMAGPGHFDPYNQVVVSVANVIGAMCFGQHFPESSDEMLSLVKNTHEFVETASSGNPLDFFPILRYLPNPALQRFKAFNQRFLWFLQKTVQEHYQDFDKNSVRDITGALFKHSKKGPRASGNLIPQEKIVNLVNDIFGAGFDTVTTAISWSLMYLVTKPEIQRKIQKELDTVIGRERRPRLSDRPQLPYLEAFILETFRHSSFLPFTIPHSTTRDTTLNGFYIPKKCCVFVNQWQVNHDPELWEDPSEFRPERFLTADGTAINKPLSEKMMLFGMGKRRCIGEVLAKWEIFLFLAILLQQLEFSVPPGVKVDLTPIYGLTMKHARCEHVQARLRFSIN

Structure (SMILES): C[C@H](NC(=O)/C=C/c1ccc(F)cc1)c1ccc(F)c(N2CCOCC2)c1
- half-life [1]: 3.5 h
- pEC50 [2]: 5.81
- Vd [3]: 3.3 L/kg
- pIC50 [4]: 4.68
- clearance [5]: 17.8 mL/min/kg
- pIC50 [6]: 4.72
- pIC50 [7]: 4.72
- pEC50 [8]: 5.92
- pIC50 [9]: 4.74
- bioavailability [10]: 84%

Structure (SMILES): C[C@H](NC(=O)/C=C/c1ccccc1)c1cccc(N2CCOCC2)c1
- pIC50 [11]: 4.12
- pEC50 [2]: 6.16
- pIC50 [12]: 4.57
- pIC50 [13]: 5.28
- pIC50 [4]: 4.21
- pIC50 [14]: < 4.00
- pIC50 [15]: 4.89
- pIC50 [6]: 4.48
- pIC50 [16]: 4.11
- pIC50 [7]: 4.66
- pEC50 [8]: 5.52
- pIC50 [9]: 4.02
